# Like-named read-outs stand apart in the source and are kept apart here.
# Columns and labels:
# [1] = system: Pseudomonas fluorescence NIHJB-24; assay: antibacterial spectrum by the broth dilution method (MIC); type: cell-based
# Method: (§1) The antibacterial spectrum of the new guanidino derivatives of kasugamycin was determined by the broth dilution method and shown in Table 2 below.
# Shigella sonnei 191-66 = assay: as above; type: cell-based; conditions: 19166; Shigella sonnei 191-66, broth dilution; read-out: Minimum inhibitory concentration
# Method: as §1
# Escherichia coli NIHJ = assay: as above; type: cell-based; conditions: read-out: Minimum inhibitory concentration
# Method: as §1
# Salmonella paratyphi A = assay: as above; type: cell-based; conditions: Salmonella enterica, read-out: Minimum inhibitory concentration
# Method: as §1
# [2] = system: Bacillus subtilis ATCC 6633; assay: as above; type: cell-based; conditions: ATCC6633; Bacillus subtilis ATCC 6633, broth dilution; read-out: Minimum inhibitory concentration
# Method: as §1
# [3] = system: Klebsiella pneumoniae ATCC 10031; assay: as above; type: cell-based; conditions: ATCC10031; Klebsiella pneumoniae ATCC 10031, broth dilution; read-out: Minimum inhibitory concentration
# Method: as §1
# [4] = system: Staphylococcus aureus 6538P; assay: as above; type: cell-based; conditions: read-out: Minimum inhibitory concentration
# Method: as §1
# Proteus vulgaris OX 19 = assay: as above; type: cell-based; conditions: OX19; Proteus vulgaris OX 19, broth dilution; read-out: Minimum inhibitory concentration
# Method: as §1
# Escherichia coli K-12 = assay: as above; type: cell-based; conditions: K12; Escherichia coli K-12, broth dilution; read-out: Minimum inhibitory concentration
# Method: as §1
# mice = assay: acute toxicity to mice injected intravenously; type: in vivo; conditions: 350 mg/kg intravenously, five mice
# From the text: (§2) The process of Example 3 was repeated using propylenediamine and butylenediamine, respectively in stead of the ethylenediamine. There were obtained 1D-3-O-{2-amino-4-[(2-aminopropyl)-guanidinol]-2,3,4,6-tetradeoxy-α- D-arabino-hexopyranosyl}-chiro-inositol and 1D-3-O-{2-amino-4-[(2-aminobutyl)-guanidinol]-2,3,4,6-tetradeoxy-α-D-arabino-hexopyranosyl]-chiro-inositol in yields of 31.2% and24.6%, respectively.
# [5] = system: Pseudomonas aeruginosa No. 12; assay: protection test against infection in mice of Pseudomonas aeruginosa; type: in vivo, mice (dd strain) infected with Pseudomonas aeruginosa No. 12; conditions: for ED50: Pseudomonas aeruginosa, NO.12, ip, read-out: curative dose (CD50)
# Method: The inoculum size of Pesudomonas aeruginosa No.12, which was 10 times of LD50 (3.1 × 10^8 cells/ml, 0.25 ml/mouse), was inoculated intraperitoneally to dd strain of mice (19-21 g body weight), and the treatment with the aforesaid kasugamycin-KG-8 was intraperitoneally injected at 0 and 6 hours after the infection.
# solubility = type: physicochemical
# [6] = acute toxicity to mice injected intravenously; type: in vivo; conditions: mouse, in vivo, iv
# From the text: as §2
# [7] = system: Pseudomonas fluorescens NIHJ B-254; assay: activity of eluted fractions against test organism; type: cell-based; conditions: purified white powder
# Method: The isourea derivative dihydrochloride of kasugamycin (500 mg) prepared in Example 2 was dissolved into 10% ethylenediamine in methanol (w/w). The solution was allowed to stand at room temperature for 24 hours, diluted with 80 ml of isopropanol and concentrated to one-half volume under reduced pressure. The solid deposited by concentration was filtered, washed with ethyl ether and dried to give 457 mg of a crude guanidino derivative of kasugamycin as a white powder. The crude powder was dissolved in 4.5 ml of water and adsorbed on a column containing 12 ml of a cation-exchange resin Amberlite IRC-50(NH4 -type). The column was washed with water and followed with 0.3N NH4 OH, and developed with 0.3N H2 SO4. The activities of each eluted fraction were determined using Pseudomonas fluorescens NIHJ B-254 as a test organism. […] And the product formed crystals as the salt of p-hydroxyazobenzene-p'-sulfonic acid.
# swine = assay: growth promoting effect on swine; type: in vivo; conditions: pigs, 10 g/ton in ration, 7 weeks
# From the text: Growth promoting effect of kasugamycin-KG-8 on swine is described below. Kasugamycin-KG-8 was mixed uniformly with ration and administered to pigs to examine its effect on growth promotion and improvement of feed utilization. Fourty-eight young pigs of 1 month old were assigned to two lots of […] pigs each and fed for 7 weeks. Lot 1 (Control): Supplied only with basal ration. Lot 2: Supplied with basal ration + kasugamycin-KG-8 10 g/ton. As the basal ration, one of standard composition was used. Swine raising was managed according to usual method. Each lot of […] pigs were fed in a concrete pen. Ration and drinking water were supplied ad libitum. The index of weight gain indicates beneficial effect of kasugamycin-KG-8 on swing growth promotion.
# chicks = assay: growth promoting effect on chicks; type: in vivo, chicks of broiler type (White Rock × White Cornish); set-up: Weight gain: unit not given here; conditions: 10 g/ton in ration; for Index of weight gain: control = 100
# Method: Growth promoting effect of kasugamycin-KG-8 on chicks is tested below. Kasugamycin-KG-8 was mixed uniformly with ration and administered to chicks to examine its effect on growth promotion and improvement of feed utilization. Eighty chicks of broiler type (White Rock × White Cornish) were assigned to two lots of 40 chicks each and for 8 weeks. Lot 1 (Control): Supplied only with basal ration. Lot 2: Supplied with basal ration + kasugamycin-KG-8 10 g/ton. As the basal ration was used one of standard composition. Chick rearing was managed according to the usual method. Ration and drinking water were supplied ad libitum. Tabel 5 indicates beneficial effect of kasugamycin-KG-8 on chick growth promotion.
# [8] = NIHJB24, Pseudomonas fluorescence NIHJB-24, broth dilution, read-out: Minimum inhibitory concentration
smiles,measurement,setting,value
CNCCN(C)C(=N)N[C@H]1C[C@H](N)[C@@H](O[C@H]2[C@H](O)[C@@H](O)[C@@H](O)[C@H](O)[C@@H]2O)O[C@@H]1C [Compound 3],MIC,[1]; [8],50 µg/mL
same,MIC,Shigella sonnei 191-66,100 µg/mL
same,MIC,Escherichia coli NIHJ,100 µg/mL
same,MIC,Salmonella paratyphi A,50 µg/mL
same,MIC,[2],25 µg/mL
same,MIC,[3],100 µg/mL
same,MIC,[4],50 µg/mL
same,MIC,Proteus vulgaris OX 19,50 µg/mL
same,MIC,Escherichia coli K-12,100 µg/mL
C[C@H]1O[C@H](O[C@H]2[C@H](O)[C@@H](O)[C@@H](O)[C@H](O)[C@@H]2O)[C@@H](N)C[C@@H]1NC(=N)NCCCCN [Compound 4],MIC,[1]; [8],3.13 µg/mL
same,MIC,Shigella sonnei 191-66,6.25 µg/mL
same,MIC,Escherichia coli NIHJ,12.5 µg/mL
same,MIC,Salmonella paratyphi A,0.78 µg/mL
same,MIC,[2],0.78 µg/mL
same,MIC,[3],1.56 µg/mL
same,MIC,[4],0.2 µg/mL
same,MIC,Proteus vulgaris OX 19,1.56 µg/mL
same,MIC,Escherichia coli K-12,1.56 µg/mL
C[C@H]1O[C@H](O[C@H]2[C@H](O)[C@@H](O)[C@@H](O)[C@H](O)[C@@H]2O)[C@@H](N)C[C@@H]1NC(=N)NCCS(=O)(=O)O [Compound 8],MIC,[1]; [8],50 µg/mL
same,MIC,Shigella sonnei 191-66,> 100 µg/mL
same,MIC,Escherichia coli NIHJ,> 100 µg/mL
same,MIC,Salmonella paratyphi A,50 µg/mL
same,MIC,[2],100 µg/mL
same,MIC,[3],> 100 µg/mL
same,MIC,[4],12.5 µg/mL
same,MIC,Proteus vulgaris OX 19,> 100 µg/mL
same,MIC,Escherichia coli K-12,> 100 µg/mL
"CC(N)CNC(=N)NC1CC(N)C(OC2C(O)C(O)C(O)C(O)C2O)OC1C [Example 4, 1D-3-O-{2-amino-4-[(2-aminopropyl)-guanidinol]-2,3,4,6-tetradeoxy-α-D-arabino-hexopyranosyl}-chiro-inositol]",deaths after intravenous injection,mice,none of them was dead
"C[C@H]1O[C@H](O[C@H]2[C@H](O)[C@@H](O)[C@@H](O)[C@H](O)[C@@H]2O)[C@@H](N)C[C@@H]1NC(=N)NCCCCN [Example 5, 1D-3-O-{2-amino-4-[(2-aminobutyl)-guanidinol]-2,3,4,6-tetradeoxy-α-D-arabino-hexopyranosyl]-chiro-inositol]",deaths after intravenous injection,mice,one of them was dead
C[C@H]1O[C@H](O[C@H]2[C@H](O)[C@@H](O)[C@@H](O)[C@H](O)[C@@H]2O)[C@@H](N)C[C@@H]1NC(=N)C(=O)O [Kasugamycin],ED50,[5],35.5 mg/kg
same,MIC,[1]; [8],3.13 µg/mL
same,MIC,Shigella sonnei 191-66,> 100 µg/mL
same,MIC,Escherichia coli NIHJ,100 µg/mL
same,MIC,Salmonella paratyphi A,50 µg/mL
same,MIC,[2],> 100 µg/mL
same,MIC,[3],50 µg/mL
same,MIC,[4],50 µg/mL
same,MIC,Proteus vulgaris OX 19,100 µg/mL
same,MIC,Escherichia coli K-12,100 µg/mL
"C[C@H]1O[C@H](O[C@H]2[C@H](O)[C@@H](O)[C@@H](O)[C@H](O)[C@@H]2O)[C@@H](N)C[C@@H]1NC(=N)NCCCN [R1 =--(CH2)3 NH2, R2 =H]",MIC,Escherichia coli NIHJ,0.39 µg/mL
same,MIC,[3],0.2 µg/mL
"C[C@H]1O[C@H](O[C@H]2[C@H](O)[C@@H](O)[C@@H](O)[C@H](O)[C@@H]2O)[C@@H](N)C[C@@H]1NC(=N)NCCN [kasugamycin-KG-8, 1D-3-O-{2-amino-4-[(2-aminoethyl)-guanidino]-2,3,4,6-tetradeoxy-α-D-arabino-hexopyranosyl}-chiro-inositol]",solubility,solubility; other organic solvents,scarcely soluble or insoluble in other organic solvents
same,solubility,"solubility; water, dimethylformamide and low alcohols","soluble in water, dimethylformamide and low alcohols"
same,LD50,[6],380 mg/kg
same,activity relative to kasugamycin,[7],three times active than kasugamycin
same,Number survived/Number infected,"[5]; 0.031 mg/mouse at one time, day 0 after infection",0/4
same,Number survived/Number infected,"[5]; 0.031 mg/mouse at one time, day 1 after infection",4/4
same,Number survived/Number infected,"[5]; 0.031 mg/mouse at one time, day 7 after infection",4/4
same,Number survived/Number infected,"[5]; 0.063 mg/mouse at one time, day 0 after infection",0/4
same,Number survived/Number infected,"[5]; 0.063 mg/mouse at one time, day 1 after infection",1/4
same,Number survived/Number infected,"[5]; 0.063 mg/mouse at one time, day 2 after infection",2/4
same,Number survived/Number infected,"[5]; 0.063 mg/mouse at one time, day 7 after infection",2/4
same,Number survived/Number infected,"[5]; 0.125 mg/mouse at one time, day 0 after infection",0/4
same,Number survived/Number infected,"[5]; 0.125 mg/mouse at one time, day 3 after infection",1/4
same,Number survived/Number infected,"[5]; 0.125 mg/mouse at one time, day 7 after infection",1/4
same,Number survived/Number infected,"[5]; 0.25 mg/mouse at one time, day 0 after infection",0/4
same,Number survived/Number infected,"[5]; 0.25 mg/mouse at one time, day 7 after infection",0/4
same,Number survived/Number infected,"[5]; 0.5 mg/mouse at one time, day 0 after infection",0/4
same,Number survived/Number infected,"[5]; 0.5 mg/mouse at one time, day 7 after infection",0/4
same,Number survived/Number infected,"[5]; 1.0 mg/mouse at one time, day 0 after infection",0/4
same,Number survived/Number infected,"[5]; 1.0 mg/mouse at one time, day 7 after infection",0/4
same,Number survived/Number infected,"[5]; 2.0 mg/mouse at one time, day 0 after infection",0/4
same,Number survived/Number infected,"[5]; 2.0 mg/mouse at one time, day 7 after infection",0/4
same,ED50,"[5]; mice, intraperitoneal at 0 and 6 hours after infection",3.13 mg/kg
same,Feed conversion,swine; control 3.05,2.94
same,Weight gain,swine; control 8.20,9.09 kg
same,Index of weight gain,swine; control = 100,110.9
same,Weight gain,"chicks; grower period for 4 weeks, control 871.8",957.8
same,Index of weight gain,chicks; grower period for 4 weeks,109.9
same,Feed conversion,"chicks; grower period, control 3.65",3.56
same,Weight gain,"chicks; starter period of 4 weeks, control 458.4",496.2
same,Index of weight gain,chicks; starter period of 4 weeks,108.2
same,Feed conversion,"chicks; starter period, control 2.15",2.15
same,Weight gain,"chicks; total period through 8 weeks, control 1330.2",1454.0
same,Index of weight gain,chicks; total period through 8 weeks,109.3
same,Feed conversion,"chicks; total period, control 3.12",3.07
same,MIC,"[1]; Pseudomonas, NIHJB24, read-out: Minimum inhibitory concentration",1.56 µg/mL
same,MIC,Shigella sonnei 191-66,1.56 µg/mL
same,MIC,Escherichia coli NIHJ,0.78 µg/mL
same,MIC,Salmonella paratyphi A,0.2 µg/mL
same,MIC,[2],0.39 µg/mL
same,MIC,[3],0.1 µg/mL
same,MIC,[4],0.78 µg/mL
same,MIC,Proteus vulgaris OX 19,0.78 µg/mL
same,MIC,Escherichia coli K-12,0.39 µg/mL
